From patent publication US9096627B2, “Hydroxamic acid derivatives” (Purdue Pharmaceutical Products L.P., priority 2009, dated 2015)

What was measured:
HDAC-2 = HDAC-2 (Homo sapiens (Human), UniProt Q92769); experiment: biochemical; type: biochemical
Method: (§1) Hydroxamic acid is a well know metal-chelating agent, especially for Zn atom. […] Many of these metalloenzymes are well known important disease target, such as HDAC and MMP. […] The following protocol is used to assay the compounds of the invention against the HDAC enzymes.
(§2) The enzyme stock solution is 4 μg/mL in buffer. The compounds are pre-incubated (2 μl in DMSO diluted to 13 μl in buffer for transfer to assay plate) with enzyme (20 μl of 4 μg/ml) for 10 minutes at room temperature (35 μl pre-incubation volume). The mixture is pre-incubated for 5 minutes at room temperature. The reaction is started by bringing the temperature to 37° C. and adding […] substrate. Total reaction volume is 50 μl. […] Such assays, carried out with a range of doses of test compounds, allow the determination of an approximate IC50 value.

MM1S = experiment: In vitro anti-proliferation assay (ATPlite luminescence); type: cell-based; details: Homo sapiens, MM1.S, 72 hours, 5% FBS, read-out: IC50 cell anti-proliferative assay MM1S
Method: (§3) Cell antiproliferation was assayed by PerkinElmer ATPlite™ Luminescence Assay System. The cancer cell lines were plated at 10 k cells per well in Costar 96-well plates with different concentration of compounds for 72 hours with 5% FBS. After that, one lyophilized substrate solution vial was reconstituted by adding 5 mL of substrate buffer solution and was agitated gently until the solution is homogeneous. 50 μL of mammalian cell lysis solution was added to 100 μL of cell suspension per well of a microplate and the plate was shaken for five minutes in an orbital shaker at 700 rpm. This procedure will lyses the cells and stabilizes the ATP. Next, 50 μL substrate solution was added to the wells and microplate was shaken for five minutes in an orbital shaker at 700 rpm. Finally the luminescence was measured by a PerkinElmer TopCount® Microplate Scintillation Counter. Such assays, carried out with a range of doses of test compounds, allow the determination of an approximate IC50 value for the in vitro cell antiproliferation assay of cancer cell lines.

MM1R = experiment: as above; type: cell-based; details: MM.1R, 72 hours, 5% FBS, read-out: IC50 cell anti-proliferative assay MM1R
Method: as §3

RPMI8226 = experiment: as above; type: cell-based; details: Homo sapiens, RPMI-8226; RPMI8226, 72 hours, 5% FBS; read-out: IC50 cell anti-proliferative assay RPMI8226
Method: as §3

HDAC-1 = HDAC-1 (Homo sapiens (Human), UniProt Q13547); experiment: Inhibition of histone deacetylase enzymatic activity (Fluor-de-Lys); type: biochemical
Method: as §1, §2

HDAC-8 = HDAC-8 (Homo sapiens (Human), UniProt Q9BY41); experiment: as above; type: biochemical
Method: as §1, §2

HDAC-3 = HDAC-3 (Homo sapiens (Human), UniProt O15379); experiment: as above; type: biochemical
Method: as §1, §2

HDAC-6 = HDAC-6 (Homo sapiens (Human), UniProt Q9UBN7); experiment: as above; type: biochemical
Method: as §1, §2

HDAC-10 = HDAC-10 (Homo sapiens (Human), UniProt Q969S8); experiment: as above; type: biochemical
Method: as §1, §2

HDAC-3, sequence (O15379 whole entry, looked up, species assumed): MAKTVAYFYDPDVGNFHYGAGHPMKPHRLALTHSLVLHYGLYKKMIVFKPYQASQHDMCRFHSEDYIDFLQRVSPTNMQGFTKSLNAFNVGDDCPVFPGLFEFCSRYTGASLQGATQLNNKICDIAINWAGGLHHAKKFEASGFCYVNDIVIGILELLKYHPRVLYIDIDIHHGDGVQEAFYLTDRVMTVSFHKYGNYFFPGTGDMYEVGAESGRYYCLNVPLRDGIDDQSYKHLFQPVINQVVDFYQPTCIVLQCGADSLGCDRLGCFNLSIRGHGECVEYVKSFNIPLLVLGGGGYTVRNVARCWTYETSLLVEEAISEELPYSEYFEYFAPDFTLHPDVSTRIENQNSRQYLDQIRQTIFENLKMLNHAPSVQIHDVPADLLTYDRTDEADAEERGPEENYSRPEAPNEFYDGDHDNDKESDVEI
HDAC-3, sequence (Q9Y618 whole entry partner, looked up, species assumed): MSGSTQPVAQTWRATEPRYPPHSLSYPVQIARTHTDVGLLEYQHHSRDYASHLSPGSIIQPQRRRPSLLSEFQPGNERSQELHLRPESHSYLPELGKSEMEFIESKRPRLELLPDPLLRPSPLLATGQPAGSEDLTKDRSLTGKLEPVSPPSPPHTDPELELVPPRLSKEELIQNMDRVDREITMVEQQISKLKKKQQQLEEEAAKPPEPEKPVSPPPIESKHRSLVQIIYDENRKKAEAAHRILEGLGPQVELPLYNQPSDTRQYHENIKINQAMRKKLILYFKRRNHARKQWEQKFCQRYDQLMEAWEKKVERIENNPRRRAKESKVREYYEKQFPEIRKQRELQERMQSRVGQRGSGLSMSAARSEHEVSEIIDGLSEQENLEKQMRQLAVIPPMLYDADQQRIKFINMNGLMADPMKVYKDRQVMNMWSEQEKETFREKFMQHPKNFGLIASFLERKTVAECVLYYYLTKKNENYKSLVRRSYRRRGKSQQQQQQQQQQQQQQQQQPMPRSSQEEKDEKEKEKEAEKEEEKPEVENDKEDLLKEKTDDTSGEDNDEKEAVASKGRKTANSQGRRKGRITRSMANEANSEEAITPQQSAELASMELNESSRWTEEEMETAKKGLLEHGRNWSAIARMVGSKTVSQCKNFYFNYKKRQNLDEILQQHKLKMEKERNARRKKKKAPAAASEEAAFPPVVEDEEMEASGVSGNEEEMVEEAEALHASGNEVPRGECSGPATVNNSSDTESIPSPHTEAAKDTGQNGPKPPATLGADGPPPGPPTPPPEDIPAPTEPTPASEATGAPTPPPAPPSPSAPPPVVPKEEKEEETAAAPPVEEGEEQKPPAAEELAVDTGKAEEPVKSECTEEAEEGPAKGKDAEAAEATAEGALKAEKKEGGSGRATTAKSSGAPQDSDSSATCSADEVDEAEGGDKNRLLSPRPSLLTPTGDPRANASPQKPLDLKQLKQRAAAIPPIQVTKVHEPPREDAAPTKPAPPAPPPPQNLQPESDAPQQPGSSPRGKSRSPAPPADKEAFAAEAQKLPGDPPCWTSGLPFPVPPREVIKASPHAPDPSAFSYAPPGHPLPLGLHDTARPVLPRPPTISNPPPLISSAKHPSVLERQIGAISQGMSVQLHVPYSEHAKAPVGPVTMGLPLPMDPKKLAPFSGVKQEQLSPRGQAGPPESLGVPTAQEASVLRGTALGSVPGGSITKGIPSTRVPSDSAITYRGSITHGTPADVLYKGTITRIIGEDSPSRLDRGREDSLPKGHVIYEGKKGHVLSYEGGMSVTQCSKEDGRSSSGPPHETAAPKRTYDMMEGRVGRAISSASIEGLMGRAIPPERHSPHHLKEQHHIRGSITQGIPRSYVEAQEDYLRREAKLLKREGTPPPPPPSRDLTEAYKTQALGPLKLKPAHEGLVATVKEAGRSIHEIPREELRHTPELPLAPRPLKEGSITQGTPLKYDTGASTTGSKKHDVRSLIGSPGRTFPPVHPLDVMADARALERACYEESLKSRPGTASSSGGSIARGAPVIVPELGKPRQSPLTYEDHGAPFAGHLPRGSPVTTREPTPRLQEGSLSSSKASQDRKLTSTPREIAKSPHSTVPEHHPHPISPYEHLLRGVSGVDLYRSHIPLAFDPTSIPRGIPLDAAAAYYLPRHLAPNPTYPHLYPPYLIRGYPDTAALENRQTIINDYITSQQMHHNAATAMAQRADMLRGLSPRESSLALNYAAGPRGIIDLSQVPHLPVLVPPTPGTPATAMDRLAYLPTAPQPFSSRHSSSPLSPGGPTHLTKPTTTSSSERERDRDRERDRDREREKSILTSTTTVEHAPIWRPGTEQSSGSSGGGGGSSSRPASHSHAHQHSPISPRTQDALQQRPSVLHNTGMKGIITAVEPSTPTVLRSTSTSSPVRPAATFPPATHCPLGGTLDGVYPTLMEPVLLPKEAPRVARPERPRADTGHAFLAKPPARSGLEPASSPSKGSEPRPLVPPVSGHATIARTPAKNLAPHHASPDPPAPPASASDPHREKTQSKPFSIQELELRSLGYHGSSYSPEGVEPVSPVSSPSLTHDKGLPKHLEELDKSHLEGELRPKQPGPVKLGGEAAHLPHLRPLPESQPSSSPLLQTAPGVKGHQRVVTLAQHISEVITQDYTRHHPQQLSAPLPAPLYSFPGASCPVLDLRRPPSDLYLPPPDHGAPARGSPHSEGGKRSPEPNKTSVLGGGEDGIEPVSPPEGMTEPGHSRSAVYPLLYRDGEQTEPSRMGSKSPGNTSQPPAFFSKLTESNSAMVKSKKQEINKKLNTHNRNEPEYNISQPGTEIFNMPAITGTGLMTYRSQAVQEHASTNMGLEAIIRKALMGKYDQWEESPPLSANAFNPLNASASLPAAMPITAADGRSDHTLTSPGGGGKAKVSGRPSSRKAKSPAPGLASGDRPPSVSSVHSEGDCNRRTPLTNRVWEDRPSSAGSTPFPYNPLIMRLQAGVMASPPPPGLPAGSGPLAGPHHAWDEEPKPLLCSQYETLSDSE
HDAC-2, sequence (Q92769 whole entry, species assumed): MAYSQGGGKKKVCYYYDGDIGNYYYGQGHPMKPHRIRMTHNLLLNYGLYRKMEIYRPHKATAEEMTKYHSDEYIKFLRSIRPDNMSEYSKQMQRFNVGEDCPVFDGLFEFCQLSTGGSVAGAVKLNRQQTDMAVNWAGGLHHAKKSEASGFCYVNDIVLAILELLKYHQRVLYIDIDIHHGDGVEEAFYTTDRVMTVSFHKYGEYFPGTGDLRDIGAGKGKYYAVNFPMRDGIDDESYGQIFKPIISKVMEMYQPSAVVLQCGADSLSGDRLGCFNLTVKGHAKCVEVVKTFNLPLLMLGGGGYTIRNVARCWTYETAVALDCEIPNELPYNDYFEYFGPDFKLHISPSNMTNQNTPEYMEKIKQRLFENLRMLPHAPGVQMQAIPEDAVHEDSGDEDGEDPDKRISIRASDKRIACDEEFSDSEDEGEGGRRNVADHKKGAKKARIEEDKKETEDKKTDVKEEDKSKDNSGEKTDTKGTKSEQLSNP
HDAC-8, sequence (Q9BY41 whole entry, species assumed): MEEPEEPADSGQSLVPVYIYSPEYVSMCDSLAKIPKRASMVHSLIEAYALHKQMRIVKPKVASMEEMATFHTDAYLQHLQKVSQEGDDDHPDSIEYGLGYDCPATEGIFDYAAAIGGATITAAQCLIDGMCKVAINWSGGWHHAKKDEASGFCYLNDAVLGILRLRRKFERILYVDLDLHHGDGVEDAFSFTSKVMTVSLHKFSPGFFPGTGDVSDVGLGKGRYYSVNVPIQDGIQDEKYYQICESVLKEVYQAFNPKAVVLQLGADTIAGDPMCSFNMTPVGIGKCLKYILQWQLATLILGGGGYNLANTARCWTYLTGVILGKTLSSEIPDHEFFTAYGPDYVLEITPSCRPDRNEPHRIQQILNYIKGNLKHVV
HDAC-6, sequence (Q9UBN7 whole entry, species assumed): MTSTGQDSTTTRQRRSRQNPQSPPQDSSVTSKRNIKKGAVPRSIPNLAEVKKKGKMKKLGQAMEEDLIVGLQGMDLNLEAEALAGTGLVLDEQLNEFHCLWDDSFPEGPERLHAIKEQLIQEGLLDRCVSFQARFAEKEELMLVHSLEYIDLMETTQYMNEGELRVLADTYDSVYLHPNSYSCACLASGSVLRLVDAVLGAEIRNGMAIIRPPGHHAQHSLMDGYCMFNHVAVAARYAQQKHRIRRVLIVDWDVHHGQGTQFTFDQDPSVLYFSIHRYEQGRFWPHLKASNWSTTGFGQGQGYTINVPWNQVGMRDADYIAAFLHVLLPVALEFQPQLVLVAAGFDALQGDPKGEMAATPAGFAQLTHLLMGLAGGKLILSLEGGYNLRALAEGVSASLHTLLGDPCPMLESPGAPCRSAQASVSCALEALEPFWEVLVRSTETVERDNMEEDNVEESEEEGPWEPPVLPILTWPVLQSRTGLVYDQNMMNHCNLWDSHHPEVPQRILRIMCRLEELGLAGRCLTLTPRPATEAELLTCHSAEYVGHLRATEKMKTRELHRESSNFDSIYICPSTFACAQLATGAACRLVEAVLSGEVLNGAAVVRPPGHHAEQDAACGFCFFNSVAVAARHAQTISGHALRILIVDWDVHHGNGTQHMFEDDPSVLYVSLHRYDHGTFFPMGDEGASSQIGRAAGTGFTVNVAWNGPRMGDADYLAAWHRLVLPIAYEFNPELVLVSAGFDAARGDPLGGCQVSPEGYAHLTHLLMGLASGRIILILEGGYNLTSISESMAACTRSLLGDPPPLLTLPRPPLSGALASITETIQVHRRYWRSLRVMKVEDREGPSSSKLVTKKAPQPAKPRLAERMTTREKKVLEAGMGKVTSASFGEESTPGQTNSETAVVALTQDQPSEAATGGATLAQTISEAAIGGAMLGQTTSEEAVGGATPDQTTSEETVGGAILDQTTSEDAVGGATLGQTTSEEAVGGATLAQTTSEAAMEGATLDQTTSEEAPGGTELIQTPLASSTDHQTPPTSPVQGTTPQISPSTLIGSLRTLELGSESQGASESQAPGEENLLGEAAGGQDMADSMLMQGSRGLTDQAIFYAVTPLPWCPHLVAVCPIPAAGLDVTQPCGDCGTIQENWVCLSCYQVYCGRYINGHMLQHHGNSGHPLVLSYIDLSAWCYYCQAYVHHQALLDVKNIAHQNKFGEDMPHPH

Row | Compound | HDAC IC50, HDAC-2 (result in words) (HDAC-2) | IC50 (MM1S) [nM] | IC50 (MM1R) [nM] | IC50 (RPMI8226) [nM] | HDAC IC50, HDAC-1 (result in words) (HDAC-1; Bendamustine, unit not given) | HDAC IC50, HDAC-8 (result in words) (HDAC-8; HDAC-8, Bendamustine, unit not given) | HDAC IC50, HDAC-3 (result in words) (HDAC-3; Bendamustine, unit not given) | HDAC IC50, HDAC-6 (result in words) (HDAC-6; HDAC-6, Bendamustine, unit not given) | HDAC IC50, HDAC-10 (result in words) (HDAC-10; HDAC-10, Bendamustine, unit not given) | IC50 (HDAC-2) [nM] | IC50 (HDAC-1) [nM] | IC50 (HDAC-8) [nM] | IC50 (HDAC-3) [nM] | IC50 (HDAC-6) [nM] | IC50 (HDAC-10) [nM]
1 | Cn1c(CCCC(=O)O)nc2cc(N(CCCl)CCCl)ccc21 [Bendamustine] | No activity | 119000 | 100000 | 400000 | No activity | No activity | No activity | No activity | No activity | – | – | – | – | – | –
2 | Cn1c(CCCCCCC(=O)NO)nc2cc(N(CCCl)CCCl)ccc21 [CY190602] | – | 1600 | 2660 | 4160 | – | – | – | – | – | 9 | 17 | 107 | 25 | 6 | 72
